Results from patent US20080241274A1 (ZIOPHARM Oncology, Inc., priority 2006, published 2008).

How the values were obtained:
[1] = tested on: murine renal cell carcinoma RENCA; test: Murine renal cell carcinoma RENCA model; type: in vivo, Mouse
Description: 1.5×10^6 RENCA cells were injected into the subcapsular space of the kidney through a flank incision (Day 1). […] On Day 21 mice were sacrificed and weight and volume of primary tumors, weight and number of metastases of the lung and metastasis formation in the abdominal lymph nodes determined. […] TNP-470 has shown anti-tumor activity in different animal models and is well established for its use in RENCA.
(§1) The significant differences in pharmacodynamics and safety profile of indibulin make it a strong candidate for development as an anti-cancer drug.

[2] = tested on: ovarian cancer with brain metastases; test: Phase I study, patient with ovarian cancer with brain metastases; type: in vivo, human; conditions: 400 mg BID continuous treatment; after 22 days of treatment; person
Description: Treatment is ongoing. […] Treatment is ongoing.

[3] = tested on: DMBA induced mammary carcinoma; test: DMBA induced mammary carcinoma in rats; type: in vivo, Rat; conditions: 46.4 mg/kg/d, 2×(3× week), at sacrifice of control group animals
Description: as §1

O=C(Nc1ccncc1)C(=O)c1cn(Cc2ccc(Cl)cc2)c2ccccc12 [Indibulin, N-(pyridin-4-yl)-[1-(4-chlorobenzyl)-indol-3-yl]-glyoxylic acid amide]
Growth Inhibition (%) ([1]; RENCA, 17.5 mg/kg/d, d. 1-20(5× week), at sacrifice of control group animals): 90% | Number of lung metastases ([1]; oral, daily Day 1-20 (5×/week), Day 21): trend in reduction of number of lung metastases but was not statistically significant | Reduction in tumor volume and weight ([1]; oral, daily Day 1-20 (5×/week), primary tumors on Day 21, FIG. 12): statistically significant | Reduction of CA125 level from baseline [2]: 11% | Growth Inhibition (%) [3]: 99.5%
